Data published in ChEMBL document CHEMBL5532706, “Passifetilactones A-E, Fatty Acid Lactones from the Fruit and Flowers of Passiflora foetida with Cytotoxic Activity” (J Nat Prod, 2024).
The source made the active and inactive calls. The calls are words filed in the database; no cut-off is given here.

Experiments:
[1] = Cytotoxicity against human MMNK-1 cells assessed as inhibition of cell growth incubated for 48 hrs by MTT assay; format: toxicity, cell-based; conditions: for IC50 at 48 h: MMNK-1 cells
PC-3 = assay: Cytotoxicity against human PC-3 cells assessed as inhibition of cell growth incubated for 72 hrs by MTT assay; format: functional, cell-based; conditions: PC-3, 72 h
KKU-M055 [2] = assay: Induction of apoptosis in human KKUM055 cells assessed as total apoptotic cells at 7 ug/ml incubated for 48 hrs by Annexin V-FITC/PI staining based flow cytometry analysis (reference value: 22.11%); format: functional; conditions: dose 7 µg/ml
KKUM213 [3] = assay: Induction of apoptosis in human KKUM213 cells assessed as total apoptotic cells at 2 ug/ml incubated for 48 hrs by Annexin V-FITC/PI staining based flow cytometry analysis (reference value: 17.61%); format: functional, KKU-213A; conditions: dose 2 µg/ml
HeLa = assay: Cytotoxicity against human HeLa cells assessed as inhibition of cell growth incubated for 72 hrs by MTT assay; format: functional, cell-based
[4] = Cytotoxicity against African green monkey Vero cells assessed as inhibition of cell growth incubated for 72 hrs by MTT assay; format: toxicity, cell-based; conditions: African green monkey (Chlorocebus sabaeus)
A549 = assay: Cytotoxicity against human A549 cells assessed as inhibition of cell growth incubated for 72 hrs by MTT assay; format: functional, cell-based; conditions: A549, 72 h
KKUM213 [5] = assay: Induction of apoptosis in human KKUM213 cells assessed as total apoptotic cells at 7 ug/ml incubated for 48 hrs by Annexin V-FITC/PI staining based flow cytometry analysis (reference value: 17.61%); format: functional, KKU-213A; conditions: dose 7 µg/ml
KKU-M055 [6] = assay: Induction of apoptosis in human KKUM055 cells assessed as total apoptotic cells at 2 ug/ml incubated for 48 hrs by Annexin V-FITC/PI staining based flow cytometry analysis (reference value: 22.11%); format: functional; conditions: dose 2 µg/ml
KKUM213 [7] = assay: Cytotoxicity against human KKUM213 cells assessed as inhibition of cell growth incubated for 48 hrs by MTT assay; format: functional, cell-based; conditions: KKU-213A
KKU-M055 [8] = assay: Cytotoxicity against human KKUM055 cells assessed as inhibition of cell growth incubated for 48 hrs by MTT assay; format: functional, cell-based; conditions: for IC50: KKU-M055, 48 h
KKUM213 [9] = assay: Induction of apoptosis in human KKUM213 cells assessed as total apoptotic cells at 7 ug/ml incubated for 48 hrs by Annexin V-FITC/PI staining based flow cytometry analysis (reference value: 18.14%); format: functional, KKU-213A; conditions: dose 7 µg/ml
KKU-M055 [10] = assay: Induction of apoptosis in human KKUM055 cells assessed as total apoptotic cells at 7 ug/ml incubated for 48 hrs by Annexin V-FITC/PI staining based flow cytometry analysis (reference value: 16.44%); format: functional; conditions: dose 7 µg/ml
KKUM213 [11] = assay: Induction of apoptosis in human KKUM213 cells assessed as total apoptotic cells at 2 ug/ml incubated for 48 hrs by Annexin V-FITC/PI staining based flow cytometry analysis (reference value: 18.14%); format: functional, KKU-213A; conditions: dose 2 µg/ml
KKU-M055 [12] = assay: Induction of apoptosis in human KKUM055 cells assessed as total apoptotic cells at 2 ug/ml incubated for 48 hrs by Annexin V-FITC/PI staining based flow cytometry analysis (reference value: 16.44%); format: functional; conditions: dose 2 µg/ml

| Structure (SMILES) | IC50 at 48 h [1] [µM] | IC50 (PC-3) [µM] | Activity (KKU-M055 [2]) [%] | Activity (KKUM213 [3]) [%] | IC50 (HeLa) [µM] | IC50 at 72 h [4] [µM] | IC50 (A549) [µM] | Activity (KKUM213 [5]) [%] | Activity (KKU-M055 [6]) [%] | IC50 (KKUM213 [7]) [µM] | IC50 (KKU-M055 [8]) [µM] | Activity (KKUM213 [9]) [%] | Activity (KKU-M055 [10]) [%] | Activity (KKUM213 [11]) [%] | Activity (KKU-M055 [12]) [%] | Activity ([1]; mmnk-1, 48 h, time 48 hrs) | Activity (KKUM213 [7]) | Activity (KKU-M055 [8]) |
| --- | --- | --- | --- | --- | --- | --- | --- | --- | --- | --- | --- | --- | --- | --- | --- | --- | --- | --- |
| CCCCCCCCCCCCCCC[C@H]1CC=CC(=O)O1 | 39.3 | 12.2 | 43.4 | 20.64 | 12.2 | 12.2 | 12.2 | 19.95 | 21.29 | 18.2 | 19.8 |  |  |  |  |  |  |  |
| CCCCCCCCCCCCCCC[C@@H]1OC(=O)C=C[C@@H]1O | 57.4 | 3.7 |  |  | 3.7 | 3.7 | 3.7 |  |  | 17 | 25.9 | 69.22 | 86 | 28.97 | 59 |  |  |  |
| CCCCCCCCCCCCCCC[C@@H](O)[C@@H]1C=CC(=O)O1 |  |  |  |  |  |  |  |  |  | 51.7 | 26.3 |  |  |  |  | Non-Toxic |  |  |
| CCCCCCCCCCCCCCC[C@@H]1C[C@@H]2C[C@@H](CC(=O)O2)O1 |  | 39.1 |  |  | 39.1 | 39.1 | 39.1 |  |  |  |  |  |  |  |  |  | inactive | inactive |
| CCCCCC/C=C\CCCCCCC[C@H]1CC=CC(=O)O1 | 52.9 | 23.6 |  |  | 11.2 | 21.2 | 16.9 |  |  | 22.5 | 31 |  |  |  |  |  |  |  |
